{"source": "patent US9492428B2", "about": "“Compounds, compositions, pharmaceutical compositions, and methods of use” (University of Louisville Research Foundation, Inc., priority 2011, dated 2016)", "key": {"[1]": {"tested_on": "DU145 cells", "test": "Annexin V-FITC / propidium iodide flow cytometry (apoptosis)", "assay_type": "cell-based, human", "experimental": "(§1) FIG. 9. Effect of compound I-1 at 5 μM on cell cycle and apoptosis. Cells were then harvested by trypsinization. (A) For flow cytometric analysis of cell cycle parameters, cells were fixed, and stained with propidium iodide. Each histogram indicates the percent of cells in G1, S, and G2/M phases of the cell cycle. Data were gated to exclude apoptotic cells for these calculations. (B) For apoptosis detection, cells were incubated with FITC-conjugated Annexin V and propidium iodide. Flow cytometric analysis was performed and the histogram for each sample was split into four quadrants to indicate: viable cells (lower left quadrant), apoptotic cells (lower right quadrant), necrotic cells (upper left quadrant), and necrotic/late apoptotic cells (upper right quadrant).\nFIG. 13. Assays to detect apoptosis in DU145 cells. Prostate cancer cells were left untreated (−) or treated with 10 μM compound I-1 or with vehicle (DMSO) for the time indicated in the figure. (A) After treatment, cells were harvest by trypsinization, washed with PBS, and then incubated with FITC-conjugated Annexin V and propidium iodide. Flow cytometric analysis was performed. The histogram for each sample was split into four quadrants to indicate: viable cells (lower left quadrant), apoptotic cells (lower right quadrant), necrotic cells (upper left quadrant), and necrotic/late apoptotic cells (upper right quadrant). (B) After treatment, cells were lysed and total lysates were analyzed for cellular apoptotic markers by immunoblotting using anti-[…] or antibodies specific to the activated form of Caspase-3 (cleaved Caspase-3). Anti-GAPDH-1 antibody was used as loading control. (C) Some cells were harvested by trypsinization, washed with PBS, and total DNA was extracted then analyzed on a 1.8% agarose gel. M indicates DNA size marker (base pairs).\n(§2) Flow cytometric assays of cell cycle and cell death. Cells in fresh complete medium were plated (2×10^5 per well) into six-well plates for 18 h. After complete adhesion, cells were treated as indicated in the figures and harvested by trypsinization. For cell cycle distribution, cells were fixed, and stained with propidium iodide using the Cycle Test Plus kit (Becton Dickinson). For cell death detection, cells were stained with Annexin-V-FITC and propidium iodide using the Apoptosis Detection Kit (BD Biosciences), according to the manufacturer's instructions. Cells were then analyzed by flow cytometry using a FACScalibur cytometer (BD Biosciences, Mountain View, Calif.) and FlowJo program (Tree Star, Inc., Ashland, Oreg.).\nCompound I-1 promotes cell death by apoptosis. Because prolonged cell cycle arrest can cause induction of cell death, we next investigated the viability of prostate cancer cells treated with compound I-1. To begin, we used the trypan blue exclusion assay, which is based on the principle that live cells will exclude membrane-impermeable dyes such as trypan blue, whereas trypan blue will get inside the dead cells and stain them. […] To determine whether apoptosis (programmed cell death) is the cause of cell death induced by compound I-1, we examined the cells for biochemical and morphological markers of apoptosis. Cells undergoing apoptosis specifically translocate the membrane phospholipid phosphatidylserine (PS) from the inner face of the plasma membrane to the cell surface; therefore, apoptotic cells can be identified by the presence of PS on the cell surface. Detection of PS is achieved by staining with a fluorescent conjugate of Annexin V, a protein that has a high affinity for PS, followed by flow cytometry analysis. Cells are stained in parallel with propidium iodide (PI), which can only enter the cell when the plasma membrane is damaged. This allows early apoptotic cells (positive for PS, but negative for PI) to be distinguished from late apoptotic and necrotic cells (positive for both PS and PI)."}, "[2]": {"tested_on": "DU145 cells", "test": "Flow cytometric analysis of cell cycle (propidium iodide) in DU145", "assay_type": "cell-based, human", "experimental": "as §1\nFIG. 10. Flow cytometric analysis of cell cycle parameters. DU145 prostate cancer cells were incubated for 24 h (A) or for 48 h (B) in the presence of 10 μM compound I-1 or vehicle (DMSO), or without additive (untreated). Cells were then harvested by trypsinization, fixed, and stained with propidium iodide for analysis by flow cytometry. Each histogram indicates the percent of cells in G1, S, and G2/M phases of the cell cycle. Data were gated to exclude apoptotic cells for these calculations. A small population of aneuploid cells with >4n DNA content, which became apparent in the cells treated with compound I-1, is also indicated (percentage underlined).\nas §2"}}, "data": [{"smiles": "C[C@@H]1CC[C@H]2C3C(O[C@]4([C@]5(O)CC6(C)C(=O)OC5C[C@@]6(C)O)CC[C@@]31O4)[C@H]1O[C@]13CC=CC(=O)[C@]23C", "note": "(some centres unmarked) [I-1]", "values": [{"measurement": "apoptotic population", "setting": "[1]; 5 μM, 24 h", "value": 5.2, "unit": "%"}, {"measurement": "apoptotic population", "setting": "[1]; 5 μM, 48 h", "value": 9.2, "unit": "%"}, {"measurement": "apoptotic population", "setting": "[1]; 5 μM, 72 h", "value": 11.5, "unit": "%"}, {"measurement": "apoptotic population", "setting": "[1]; 10 μM, 24 h", "value": 7.4, "unit": "%"}, {"measurement": "apoptotic cell population", "setting": "[1]; 10 μM, 48 h", "value": 32.3, "unit": "%"}, {"measurement": "apoptotic cell population", "setting": "[1]; 10 μM, 72 h", "value": 46.4, "unit": "%"}, {"measurement": "population of late apoptotic/necrotic cells", "setting": "[1]; 10 μM, 72 h", "value": 28.4, "unit": "%"}, {"measurement": "cell cycle parameters", "setting": "[2]; 5 μM", "value": "not perturbed"}, {"measurement": "population of aneuploid cells that contain more than 4n DNA", "setting": "[2]; 10 μM", "value": "additional peak to the right of the G2/M peak"}, {"measurement": "fraction of cells in phase", "setting": "[2]; 10 μM, 24 h", "value": 8, "unit": "%"}, {"measurement": "proportion of cells in G2/M phases", "setting": "[2]; 10 μM, 24 h", "value": 49, "unit": "%"}, {"measurement": "proportion of cells in S phase", "setting": "[2]; 10 μM, 24 h", "value": 37, "unit": "%"}, {"measurement": "fraction of cell in G2/M", "setting": "[2]; 10 μM, 48 h", "value": 66, "unit": "%"}, {"measurement": "percentage of cells in S phase", "setting": "[2]; 10 μM, 48 h", "value": "decreased"}]}]}
